# Test system: PANC-1 cells
# Assay: Click-iT EdU cell proliferation assay
# Type: cell-based, human
# Conditions: PANC-1 cells treated for 24 hours; selinexor or MYXV
# Experimental: Selinexor was previously reported to reduce the proliferation of cancer cells, however, viral infection also stops cell proliferation (Zheng, Y., et al., 2014, Cancer Chemotherapy and Pharmacology, 74:487-495; Johnston, J. B., et al., 2005, Journal of Virology, 79:10750-10763). As such, the effect of selinexor and MYXV on human cancer cells was examined alone and in combination. To this end, two cell proliferation assays were performed. In the first methods, DNA synthesis was measured by the incorporation of EdU (5-ethynyl-2′-deoxyuridine), a nucleoside analog of thymidine, into DNA during active DNA synthesis (FIG. 4A) (Chehrehasa F., et al., 2009, Journal of Neuroscience Methods, 177:122-130). Using this method in uninfected PANC-1 cells, EdU incorporation was detected in more than 50% of dividing cells (FIG. 4B and FIG. 4C). When cells were treated with selinexor or MYXV for 24 hours, on the other hand, a significant reduction in proliferation was observed (20% EdU-positive cells). […]
# Click-iT EdU Cell Proliferation Assay: To visualize and measure cell proliferation, a Click-iT™ EdU cell proliferation assay (Thermo Fisher) was used according to the manufacturer's instructions. […] Fluorescence images were obtained using a fluorescence microscope and fluorescence signals were analyzed using ImageJ software.
smiles,measurement,value
O=C(/C=C\n1cnc(-c2cc(C(F)(F)F)cc(C(F)(F)F)c2)n1)NNc1cnccn1 [selinexor],EdU-positive cells,20%

# Source: US20250249056A1, “CANCER THERAPIES COMPRISING A NUCLEAR EXPORT INHIBITOR AND AN ONCOLYTIC VIRUS” (priority 2022, published 2025)
